# Literature values as cited in US4933274A, “Process for detecting genetic susceptibility to cancer” (United States of America Represented by the Secretary of …, priority 1988, dated 1990).
# Columns and labels:
# normal cells = conditions: ara-C 50 μM added to normal cells following irradiation
# x-irradiated XP-A cells = conditions: ara-C added to x-irradiated XP-A (xeroderma pigmentosum group A) cells
smiles,measurement,setting,value
"Nc1ccn([C@@H]2O[C@H](CO)[C@@H](O)[C@@H]2O)c(=O)n1 [ara-C, β-cytosine arabinoside]",frequency of chromatid damage,normal cells,enhances the frequency of chromatid damage to the level observed in the irradiated cancer-prone cells
same,chromatid damage,x-irradiated XP-A cells,no effect on chromatid damage
